Tested on: patients after acute myocardial infarction
Assay: Life quality, Seattle Angina Questionnaire (SAQ), same clinical trial
Format: in vivo, human
Conditions: PP
Source text: 3508 patients who were in accordance with the diagnostic standards of AMI for 28 days to 2 years and differentiated as Qi deficiency and blood stagnation syndrome by TCM were studied. 0.5 g Chinese medicine composition prepared by the method of EXAMPLE 1 (Coded as QSYQ) was administrated half an hour after meal, 3 times per day.
There were 19 questions in the Seattle angina questionnaire (SAQ), including 5 parts: physical limitation (PL), anginal stability (AS), anginal frequency (AF), treatment satisfaction (TS) and disease perception (DP). After being given necessary explanation by doctors, the questions were answered independently by patients.
They included the overall survival time, angina pectoris score, TCM symptom score and life quality score, where angina pectoris score, TCM symptom score and life quality score were evaluated at randomization, in 1st, 3rd, 6th, 9th, 12th month after treatment and 18th month after follow-up.
All evaluation results of SAQ were described during the period of observation, and Wilcoxon rank sum test was used for inter-group comparison.
The evaluation results in the SAQ were depicted in different observations, and inter-group comparison was tested by Wilcoxon Rank-sum test.

## CC(=O)Oc1ccccc1C(=O)O [Control group, aspirine]
Follow-up
  SAQ Question 1-4: Not limited, percent of patients: (53.63%)
  SAQ Question 1-4: Other reasons, number of patients: 10
  SAQ Question 1-4: Other reasons, percent of patients: (0.71%)
  SAQ Question 1-4: Severely limited, number of patients: 5
  SAQ Question 1-4: Severely limited, percent of patients: (0.36%)
  SAQ Question 1-4: Slightly limited, number of patients: 428
  SAQ Question 1-4: Slightly limited, percent of patients: (30.44%)
  SAQ Question 1-5: Mildly limited, number of patients: 181
  SAQ Question 1-5: Mildly limited, percent of patients: (12.87%)
  SAQ Question 1-5: Moderately limited, number of patients: 57
  SAQ Question 1-5: Moderately limited, percent of patients: (4.05%)
  SAQ Question 1-5: Not limited, number of patients: 765
  SAQ Question 1-5: Not limited, percent of patients: (54.41%)
  SAQ Question 1-5: Other reasons, number of patients: 8
  SAQ Question 1-5: Other reasons, percent of patients: (0.57%)
  SAQ Question 1-5: Severely limited, number of patients: 9
  SAQ Question 1-5: Severely limited, percent of patients: (0.64%)
  SAQ Question 1-5: Slightly limited, number of patients: 386
  SAQ Question 1-5: Slightly limited, percent of patients: (27.45%)
  SAQ Question 1-9: Mildly limited, % of cases: (20.25%)
  SAQ Question 1-9: Mildly limited, cases: 276
  SAQ Question 1-9: Moderately limited, % of cases: (21.13%)
  SAQ Question 1-9: Moderately limited, cases: 288
  SAQ Question 1-9: Not limited, % of cases: (6.09%)
  SAQ Question 1-9: Not limited, cases: 83
  SAQ Question 1-9: Other reasons, % of cases: (4.77%)
  SAQ Question 1-9: Other reasons, cases: 65
  SAQ Question 1-9: Severely-limited, % of cases: (27.29%)
  SAQ Question 1-9: Severely-limited, cases: 372
  SAQ Question 1-9: Slightly limited, % of cases: (20.47%)
  SAQ Question 1-9: Slightly limited, cases: 279
1 month after treatment
  8th question: Dissatisfied, patients (%): (0.13%)
  8th question: Highly satisfied, patients (%): (17.41%)
  8th question: Mostly dissatisfied, patients (%): (4.23%)
  8th question: Mostly satisfied, patients (%): (48.99%)
  8th question: Partly satisfied, patients (%): (29.23%)
  9th question: Few, patients (%): (25.86%)
  9th question: Mild, patients (%): (35.93%)
  9th question: Moderate, patients (%): (18.94%)
  9th question: Severe, patients (%): (2.01%)
  9th question: Uneffective, patients (%): (17.26%)
  10th question: Dissatisfied, patients (%): (22.24%)
  10th question: Highly satisfied, patients (%): (4.23%)
  10th question: Mostly dissatisfied, patients (%): (23.12%)
  10th question: Mostly satisfied, patients (%): (19.83%)
  10th question: Partly satisfied, patients (%): (30.58%)
  11th question: Continuously worried, patients (%): (6.04%)
  11th question: No worried, patients (%): (4.84%)
  11th question: Occasionally worried, patients (%): (41.24%)
  11th question: Often worried, patients (%): (21.76%)
  11th question: Seldom worried, patients (%): (26.12%)
  SAQ 4th question, 1-2 times per week: % of patients: (17.41%)
  SAQ 4th question, 1-2 times per week: number of patients: 259
  SAQ 4th question, 1-3 times per day: % of patients: (6.52%)
  SAQ 4th question, 1-3 times per day: number of patients: 97
  SAQ 4th question, <1 time per week: % of patients: (9.07%)
  SAQ 4th question, <1 time per week: number of patients: 135
  SAQ 4th question, Not used: % of patients: (53.23%)
  SAQ 4th question, Not used: number of patients: 792
  SAQ 4th question, ≧3 times per week: % of patients: (13.71%)
  SAQ 4th question, ≧3 times per week: number of patients: 204
  SAQ 4th question, ≧4 times per day: % of patients: (0.07%)
  SAQ 4th question, ≧4 times per day: number of patients: 1
  SAQ 5th question, Few: % of patients: (21.67%)
  SAQ 5th question, Few: number of patients: 322
  SAQ 5th question, Mild: % of patients: (28.94%)
  SAQ 5th question, Mild: number of patients: 430
  SAQ 5th question, Moderate: % of patients: (18.24%)
  SAQ 5th question, Moderate: number of patients: 271
  SAQ 5th question, None: % of patients: (25.44%)
  SAQ 5th question, None: number of patients: 378
  SAQ 5th question, Not medicated by doctors: % of patients: (3.57%)
  SAQ 5th question, Not medicated by doctors: number of patients: 53
  SAQ 5th question, Severe: % of patients: (2.15%)
  SAQ 5th question, Severe: number of patients: 32
  SAQ 6th question, Dissatisfied: % of patients: (0.20%)
  SAQ 6th question, Dissatisfied: number of patients: 3
